Experimental data from article PMC7661967, “Magnetic Resonance Molecular Imaging of Extradomain B Fibronectin Improves Imaging of Pancreatic Cancer Tumor Xenografts” (Frontiers in Oncology, 2020).
“Also recorded” adds a separate entry of the source. No end group written: not given here.

What was measured:
[1] = Spleen CNR in contrast-enhanced MRI; format: in vivo, nu/nu mice; settings: BxPC3-GFP-Luc intrapancreatic model (n = 3), p > 0.05
Procedure: (§1) Flank tumor-bearing mice were anesthetized and a tail vein catheter inserted. MR image acquisition was performed on a 7T Biospin (Bruker, Billerica, MA) preclinical small animal scanner with a volume radiofrequency coil. Axial images were obtained using a multi-spin multi-echo (MSME) MRI sequence (500 ms TR, 8.1 ms TE, 90° FA, 4.50 cm × 4.50 cm FOV, 1.50 mm slice thickness, 16 slices, 2 averages, 200 × 200 matrix, 0.0225 × 0.0225 cm/pixel resolution). Contrast agents were injected at a dose of 0.1 mmol/kg (100 μL) via the tail vein catheter, followed by a saline flush. Images of the tumors were acquired before contrast and at various time points after contrast administration. Gd(HP-DO3A) was used as a control.
(§2) Mice bearing intrapancreatic tumors were anesthetized and a tail vein catheter was inserted. Image acquisition was performed on a MR Solutions 3T MRS 3000 scanner with a mouse radiofrequency coil. […]
(§3) Image files were exported and analyzed in Horus software. […] The contrast-to-noise ratio of the tumor (CNR) was calculated using the following equation, where σnoise is the standard deviation of intensities from an ROI drawn outside of the mouse body: […]

[2] = biological target: T1, EDB fragment of FN (Homo sapiens, UniProt P02751); assay: Microscale thermophoresis binding affinity; settings: MST
T1 construct: The EDB fragment of FN was expressed in E. coli; made in house; host or cells: E. coli
Procedure: The binding affinity of MT218 was determined with microscale thermophoresis (MST) using a Nanotemper Monolith NT.115 instrument (NanoTemper Technologies, Munich, Germany). The EDB fragment of FN was expressed in E. coli, purified, and labeled with amine-reactive dye NT-647. MT218 was dissolved into assay buffer (50 mM PBS w/0.05% Tween-20). This solution was further diluted using assay buffer to give a series of MT218 working solutions. Each MT218 working solution was then mixed with a fixed concentration of fluorescently labeled EDB fragment. The mixtures of MT218 and EDB were then loaded into standard capillaries, and MST measurements were performed at 25°C using 20–80% light-emitting diode power and 40% infrared-laser power at varying concentrations of MT218.

[3] = Liver CNR in contrast-enhanced MRI; format: in vivo, nu/nu mice; settings: for liver CNR, MT218 vs Gd(HP-DO3A): 0.1 mmol/kg, p > 0.05
Procedure: as §1
(§4) Mice bearing intrapancreatic tumors were anesthetized and a tail vein catheter was inserted. Image acquisition was performed on a MR Solutions 3T MRS 3000 scanner with a mouse radiofrequency coil. Axial images were obtained using a Fast Spin Echo (FSE) MRI sequence (305 ms TR, 11 ms TE, 90° FA, 4 cm × 4 cm FOV, 1 mm slice thickness, 10 slices, echo train length = 4, echo spacing = 11 ms, 4 averages, 256 × 256 matrix, 0.0156 × […] cm/pixel resolution) with respiratory gating. Images were acquired before contrast and at different time points after contrast injection at a dose of 0.1 mmol/kg (100 μL). For competitive binding experiments, a 5:1 molar ratio of free ZD2 peptide to MT218 was injected in mice bearing intrapancreatic BxPC3 tumor xenografts (n = 3) at a dose of 0.1 mmol MT218/kg (100 μL). Images obtained on the MR Solutions 3T scanner were normalized using the Surscalereader.exe (MR Solutions, Guildford, UK) program supplied.
Image files were exported and analyzed in Horus software. ROIs were drawn in the tumor, liver, kidney, and muscle. […] The contrast-to-noise ratio of the tumor (CNR) was calculated using the following equation, where σnoise is the standard deviation of intensities from an ROI drawn outside of the mouse body:
The contrast to noise ratio of the liver (CNR) was calculated using the following equation: […]

[4] = Kidney CNR in contrast-enhanced MRI; format: in vivo, nu/nu mice; settings: all tested mice, p > 0.05; BxPC3-GFP-Luc (n = 3) and PANC-1-GFP-Luc (n = 6) models
Procedure: as §1, §2, §3

[5] = system: PANC-1-GFP-Luc intrapancreatic tumor xenografts; assay: MRMI of PANC-1-GFP-Luc intrapancreatic tumor xenografts (3T); format: in vivo, human cells in female nu/nu mice
Procedure: For flank xenograft models, 4 × 10^6 Capan-1 cells suspended in 100 μL of a 6 mg/mL Matrigel (Corning, Corning, NY) solution was injected subcutaneously into the flank of 8-week-old female nu/nu mice. The tumor bearing mice were imaged after tumor volumes exceeded 300 mm^3. For orthotopic intrapancreatic models, the pancreas of 4-week-old female nu/nu mice were surgically exposed via a ~10 mm incision in the left ventral abdomen and the application of gentle pressure to express the spleen and associated pancreatic tissue. 1 × 10^6 BxPC3-GFP-Luc or PANC-1-GFP-Luc cells suspended in 100 μL of a Matrigel solution (6 mg/mL) was injected into the pancreatic tissue using an insulin syringe with a 31G needle. Any leakage of cell suspension was lavaged with DPBS twice to prevent intraabdominal seeding PaCa cells. The peritoneal fascia was closed with absorbable stitches, and the dermis closed with stainless steel wound clips. Prior to imaging, growth of tumor was verified by bioluminescence imaging with intraperitoneal injection of d-luciferin on IVIS Spectrum system (Perkin Elmer, Waltham, MA).
as §4
Image files were exported and analyzed in Horus software. ROIs were drawn in the tumor, liver, kidney, and muscle. Muscle ROIs were taken from the muscle, with other structures (liver, kidney, tumor) identified after comparison with published images and comparison with anatomical landmarks or bioluminescent imaging. Pancreatic lesions were localized using the liver, kidney, and spleen as anatomical landmarks. […] Size of ROIs drawn for image analysis are summarized in Supplementary Table 1. The contrast-to-noise ratio of the tumor (CNR) was calculated using the following equation, where σnoise is the standard deviation of intensities from an ROI drawn outside of the mouse body:
CNR=Mean IntensityTumor-Mean IntensityMuscle/σnoise.
Image subtraction was performed on images adjusted to the same window and level in FIJI open-source software.
Image contrast was reported as fold enhancement of contrast to noise ratio of post-contrast images over pre-contrast images using Fold Enhancement = CNRpost/CNRpre. Statistical analysis of CNR was performed in Minitab Express (Minitab Inc., State College, PA). One-way ANOVA with Fisher Individual Tests for Differences of Means post-hoc testing was performed to determine statistical significance between >2 means (p < 0.05). Student's T test was used to determine statistical significance between 2 means (p < 0.05).

[6] = 0.1 mmol/kg, 10 min post-injection, n = 6

T1 sequence (P02751 1271-1359 limits assumed): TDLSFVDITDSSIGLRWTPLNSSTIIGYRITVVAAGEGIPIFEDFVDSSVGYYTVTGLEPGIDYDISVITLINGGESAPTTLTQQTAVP

- Kd ([2]; NT-647-labeled EDB fragment, 50 mM PBS w/0.05% Tween-20, 25°C): 3.2 ± 0.2 µM
Substance: ZD2-N3-Gd(HP-DO3A) (TVRTSAD; also: conjugated via N3 to Gd(HP-DO3A) contrast agent, end not given here) [MT218, small molecular conjugate of ZD2 peptide to a macrocyclic clinical MRI contrast agent Gd(HP-DO3A)]
- spleen CNR, MT218 vs Gd(HP-DO3A) [1]: No significant (n.s, p>0.05) difference in spleen CNR
- binding affinity (in words) ([2]; MT218 to EDB-FN): micromolar affinity; also recorded: moderate binding affinity
- liver CNR, MT218 vs Gd(HP-DO3A) ([3]; BxPC3-GFP-Luc and PANC-1-GFP-Luc intrapancreatic models): No difference in CNR
- liver CNR, MT218 vs Gd(HP-DO3A) ([3]; Capan-1 flank model): No significant difference in CNR
- non-specific signal enhancement in hepatic tissue ([3]; MRMI with MT218): Minimal non-specific signal enhancement
- kidney CNR, MT218 vs Gd(HP-DO3A) [4]: No significant (n.s, p>0.05) difference in kidney CNR
- intratumoral CNR increase (post/pre) [5, 6]: approximately 3.9 fold
- tumor contrast enhancement [5, 6]: substantial contrast enhancement
- tumor signal enhancement, subtraction images [5, 6]: substantial signal enhancement
- MT218 CNR as percent of Gd(HP-DO3A) control ([5]; PANC-1-GFP-Luc intrapancreatic, control Gd(HP-DO3A), p < 0.05): 164%
- CNR relative to clinical agent ([5]; PANC-1-GFP-Luc intrapancreatic, vs Gd(HP-DO3A), p < 0.05): 1.6 times
